# Measurements as given in PubChem BioAssay (NCI).
#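 Abbreviation: GI50, concentration required for 50% inhibition of growth. TGI denotes the concentration required for complete inhibition of growth.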
# Experiments:
# Experiment in all cases: inhibition of tumour cell growth, NCI panel, 384-well format
# HOP-62 NSCLC = test system: HOP-62 NSCLC
# SK-MEL-28 melanoma = test system: SK-MEL-28 melanoma
# NCI-H460 NSCLC = test system: NCI-H460 NSCLC
# UACC-62 melanoma = test system: UACC-62 melanoma
# MDA-MB-435 melanoma = test system: MDA-MB-435 melanoma
# PC-3 prostate = test system: PC-3 prostate
# 786-0 renal = test system: 786-0 renal
# BT-549 breast = test system: BT-549 breast
# MCF7 breast = test system: MCF7 breast
# SF-539 CNS = test system: SF-539 CNS
# IGROV1 ovarian = test system: IGROV1 ovarian
# SN12C renal = test system: SN12C renal
# OVCAR-3 ovarian = test system: OVCAR-3 ovarian
# EKVX NSCLC = test system: EKVX NSCLC
# SNB-19 CNS = test system: SNB-19 CNS
# HS 578T breast = test system: HS 578T breast
# OVCAR-8 ovarian = test system: OVCAR-8 ovarian
# SNB-75 CNS = test system: SNB-75 CNS
# ACHN renal = test system: ACHN renal
# NCI-H322M lung = test system: NCI-H322M lung
# A498 renal = test system: A498 renal
# RPMI-8226 leukemia = test system: RPMI-8226 leukemia
# HCT-15 colon = test system: HCT-15 colon
# CCRF-CEM leukemia = test system: CCRF-CEM leukemia
# TK-10 renal = test system: TK-10 renal
# SF-295 CNS = test system: SF-295 CNS
# HOP-92 NSCLC = test system: HOP-92 NSCLC
# A549 NSCLC = test system: A549 NSCLC
# RXF 393 renal = test system: RXF 393 renal
compound,measurement,setting,value
C[C@@H]1COCCN1c1nc(-c2cnc(N)cc2C(F)F)nc(N2[C@H](C)COC[C@@H]2C)n1,TGI,HOP-62 NSCLC,4220 nM
same,GI50,SK-MEL-28 melanoma,121 nM
same,TGI,SK-MEL-28 melanoma,1170 nM
same,GI50,NCI-H460 NSCLC,38.2 nM
same,TGI,NCI-H460 NSCLC,1510 nM
same,GI50,UACC-62 melanoma,114 nM
same,TGI,UACC-62 melanoma,899 nM
same,GI50,MDA-MB-435 melanoma,208 nM
same,TGI,MDA-MB-435 melanoma,2570 nM
same,GI50,PC-3 prostate,84.5 nM
same,TGI,PC-3 prostate,1960 nM
same,GI50,786-0 renal,116 nM
same,TGI,786-0 renal,2780 nM
same,GI50,BT-549 breast,97.7 nM
same,TGI,BT-549 breast,1140 nM
same,GI50,MCF7 breast,36.6 nM
same,TGI,MCF7 breast,1360 nM
same,GI50,SF-539 CNS,116 nM
same,TGI,SF-539 CNS,2450 nM
same,GI50,IGROV1 ovarian,36 nM
same,TGI,IGROV1 ovarian,238 nM
same,GI50,SN12C renal,95.9 nM
same,TGI,SN12C renal,10900 nM
same,GI50,OVCAR-3 ovarian,119 nM
same,TGI,OVCAR-3 ovarian,10400 nM
same,GI50,EKVX NSCLC,122 nM
same,TGI,EKVX NSCLC,1080 nM
same,GI50,SNB-19 CNS,711 nM
same,TGI,SNB-19 CNS,16100 nM
same,GI50,HS 578T breast,40.5 nM
same,TGI,HS 578T breast,269 nM
same,GI50,OVCAR-8 ovarian,165 nM
same,TGI,OVCAR-8 ovarian,11600 nM
same,GI50,SNB-75 CNS,54.9 nM
same,TGI,SNB-75 CNS,2100 nM
same,GI50,ACHN renal,81.2 nM
same,TGI,ACHN renal,2550 nM
same,GI50,NCI-H322M lung,95.7 nM
same,TGI,NCI-H322M lung,2970 nM
same,GI50,A498 renal,23.1 nM
same,TGI,A498 renal,407 nM
same,GI50,RPMI-8226 leukemia,16.6 nM
same,TGI,RPMI-8226 leukemia,48.5 nM
same,GI50,HCT-15 colon,59 nM
same,TGI,HCT-15 colon,1330 nM
same,GI50,CCRF-CEM leukemia,106 nM
same,TGI,CCRF-CEM leukemia,1050 nM
same,GI50,TK-10 renal,232 nM
same,TGI,TK-10 renal,4550 nM
same,GI50,SF-295 CNS,41.4 nM
same,TGI,SF-295 CNS,369 nM
same,GI50,HOP-92 NSCLC,84.9 nM
same,TGI,HOP-92 NSCLC,1570 nM
same,GI50,A549 NSCLC,52.9 nM
same,TGI,A549 NSCLC,3890 nM
same,GI50,RXF 393 renal,73.2 nM
same,TGI,RXF 393 renal,4440 nM
